For experiment [1], the system named is cGAS/STING pathway in THP1 cells. Description: THP1 cell-based cGAS/STING pathway activity assay (IRF-3-linked luciferase reporter). To be noted: Homo sapiens, THP-1. In short, it runs like this:
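THP1 cells carrying an IRF-3-driven luciferase reporter were read across a range of compound concentrations, and IC50 values were derived from these concentration responses; the assay upper limit was 100 μM.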

Experiment [2] concerns the target Human cGAS amino acids 155-522 (Homo sapiens (Human), UniProt Q8N884). Description: cGAS biochemical activity assay (ATP remaining, Kinase-Glo Max luminescence). On the technique in general: In Kinase-Glo more light means more ATP remaining.
Where [3] appears, read: human cGAS 155-522, ATP remaining (Kinase-Glo Max), read-out: cGAS IC50.

For 27 compounds, IC50 results are on record in patent US10738056B2 (Aduro BioTech, Inc., priority 2017, dated 2020).

pIC50: −log10 of the molar value. Where two headings read alike, the source gives them in different places.

Chain of Human cGAS amino acids 155-522 (Q8N884 157-522): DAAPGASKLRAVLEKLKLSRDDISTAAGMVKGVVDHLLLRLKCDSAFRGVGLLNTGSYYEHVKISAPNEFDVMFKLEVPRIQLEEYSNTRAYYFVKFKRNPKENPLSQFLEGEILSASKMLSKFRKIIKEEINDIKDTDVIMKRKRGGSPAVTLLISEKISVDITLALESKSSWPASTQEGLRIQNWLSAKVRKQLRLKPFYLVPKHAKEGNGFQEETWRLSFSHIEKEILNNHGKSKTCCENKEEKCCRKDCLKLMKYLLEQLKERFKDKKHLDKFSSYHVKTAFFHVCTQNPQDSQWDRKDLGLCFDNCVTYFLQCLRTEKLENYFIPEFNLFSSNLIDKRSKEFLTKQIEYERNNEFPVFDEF

As to `COc1cccc2oc(-c3c[nH]c4c(-c5ccccc5)c(C(F)(F)F)nn4c3=O)nc12` [Compound C1079, 6-(4-methoxybenzo[d]oxazol-2-yl)-3-phenyl-2-(trifluoromethyl)pyrazolo[1,5-a]pyrimidin-7(4H)-one], the pIC50 (in general, the negative decadic logarithm of the IC50, by convention in mol/L) is above 4.70 in experiment [1] and below 3.60 in experiment [2] (setting [3]).

For `COc1[nH]c2c(-c3ccccc3)c(C(F)(F)F)nn2c(=O)c1-c1nc2c(OC)cccc2o1` [Compound C1084, 5-methoxy-6-(4-methoxybenzo[d]oxazol-2-yl)-3-phenyl-2-(trifluoromethyl)pyrazolo[1,5-a]pyrimidin-7(4H)-one], the pIC50 in experiment [1] and in experiment [2] (setting [3]) was above 4.70 each time.

In the case of `COc1cccc2oc(-c3c(N)[nH]c4c(-c5ccccc5)c(C(F)(F)F)nn4c3=O)nc12` [Compound C1085, 5-amino-6-(4-methoxybenzo[d]oxazol-2-yl)-3-phenyl-2-(trifluoromethyl)pyrazolo[1,5-a]pyrimidin-7(4H)-one], the negative-log IC50 (pIC50) in experiment [1] is below 4.00; in experiment [2] (setting [3]), above 4.70.

Take `Cc1[nH]c2c(-c3ccccc3)c(C(F)(F)F)nn2c(=O)c1-c1nc2c(OC(=O)N(C)C)cccc2o1` [Compound C1088, 2-(5-methyl-7-oxo-3-phenyl-2-(trifluoromethyl)-4,7-dihydropyrazolo[1,5-a]pyrimidin-6-yl)benzo[d]oxazol-4-yl dimethylcarbamate]: the negative-log IC50 (pIC50) in experiment [1] is 4.00 to 4.70; in experiment [2] (cGAS IC50, human cGAS 155-522, ATP remaining (Kinase-Glo Max)) it was above 4.70.

On to `COc1c(C)ccc2oc(-c3c(C)[nH]c4c(-c5ccccc5)c(C(F)(F)F)nn4c3=O)nc12` [Compound C1093, 6-(4-methoxy-5-methylbenzo[d]oxazol-2-yl)-5-methyl-3-phenyl-2-(trifluoromethyl)pyrazolo[1,5-a]pyrimidin-7(4H)-one], for which the pIC50 is 4.00 to 4.70 in experiment [1] and above 4.70 in experiment [2] (setting [3]).

As to `COc1c(Cl)ccc2oc(-c3c(C)[nH]c4c(-c5ccccc5)c(C(F)(F)F)nn4c3=O)nc12` [Compound C1095, 6-(5-chloro-4-methoxybenzo[d]oxazol-2-yl)-5-methyl-3-phenyl-2-(trifluoromethyl)pyrazolo[1,5-a]pyrimidin-7(4H)-one], the pIC50 in experiment [1] is below 4.00; in experiment [2] (setting [3]) it was above 4.70.

`COc1cncc2oc(-c3c(C)[nH]c4c(-c5ccccc5)c(C(F)(F)F)nn4c3=O)nc12` [Compound C1096, 6-(7-methoxyoxazolo[5,4-c]pyridin-2-yl)-5-methyl-3-phenyl-2-(trifluoromethyl)pyrazolo[1,5-a]pyrimidin-7(4H)-one]: the pIC50 was below 4.00 in experiment [1] and above 4.70 in experiment [2] (setting [3]).

Take `Cc1[nH]c2c(-c3ccccc3)c(C(F)(F)F)nn2c(=O)c1-c1nc2c([S+](C)[O-])cccc2o1` (stereo not drawn) [Compound C1097, 5-methyl-6-(4-(methylsulfinyl)benzo[d]oxazol-2-yl)-3-phenyl-2-(trifluoromethyl)pyrazolo[1,5-a]pyrimidin-7(4H)-one]: the pIC50 in experiment [1] was below 4.00; in experiment [2] (setting [3]), above 4.70.

With `COc1ccc(C#N)c2oc(-c3c(C)[nH]c4c(-c5ccccc5)c(C(F)(F)F)nn4c3=O)nc12` [Compound C1100, 4-methoxy-2-(5-methyl-7-oxo-3-phenyl-2-(trifluoromethyl)-4,7-dihydropyrazolo[1,5-a]pyrimidin-6-yl)benzo[d]oxazole-7-carbonitrile], the values for the pIC50 in experiment [1] and in experiment [2] (setting [3]) were 4.00 to 4.70 and above 4.70, respectively.

On to `CCOC(=O)c1coc(-c2c(C)[nH]c3c(-c4ccccc4)c(C(F)(F)F)nn3c2=O)n1` [Compound C1101, ethyl 2-(5-methyl-7-oxo-3-phenyl-2-(trifluoromethyl)-4,7-dihydropyrazolo[1,5-a]pyrimidin-6-yl)oxazole-4-carboxylate], for which the pIC50 is 4.00 to 4.70 in experiment [1] and above 4.70 in experiment [2] (setting [3]).

With `COc1cccc2oc(-c3c(CO)[nH]c4c(-c5ccccc5)c(C(F)(F)F)nn4c3=O)nc12` [Compound C1103, 5-(hydroxymethyl)-6-(4-methoxybenzo[d]oxazol-2-yl)-3-phenyl-2-(trifluoromethyl)pyrazolo[1,5-a]pyrimidin-7(4H)-one], the negative-log IC50 (pIC50) in experiment [1] was 4.00 to 4.70; in experiment [2] (setting [3]) it was above 4.70.

In the case of `Cc1[nH]c2c(-c3ccccc3)c(C(F)(F)F)nn2c(=O)c1-c1nc(CO)co1` [Compound C1104, 6-(4-(hydroxymethyl)oxazol-2-yl)-5-methyl-3-phenyl-2-(trifluoromethyl)pyrazolo[1,5-a]pyrimidin-7(4H)-one], the negative-log IC50 (pIC50) in experiment [1] was below 4.00; in experiment [2] (setting [3]), above 4.70.

Consider `Cc1[nH]c2c(-c3ccccc3)c(C(F)(F)F)nn2c(=O)c1-c1nc2c(=O)n(C)ccc2o1` [Compound C1106, 5-methyl-2-(5-methyl-7-oxo-3-phenyl-2-(trifluoromethyl)-4,7-dihydropyrazolo[1,5-a]pyrimidin-6-yl)oxazolo[4,5-c]pyridin-4(5H)-one], for which the pIC50 in experiment [1] is 4.00 to 4.70; in experiment [2] (setting [3]), above 4.70.

Regarding `COc1cccc2oc(-c3c(C)[nH]c4c(-c5ccc(F)cc5)c(C(F)(F)F)nn4c3=O)nc12` [Compound C1107, 3-(4-fluorophenyl)-6-(4-methoxybenzo[d]oxazol-2-yl)-5-methyl-2-(trifluoromethyl)pyrazolo[1,5-a]pyrimidin-7(4H)-one], the pIC50 was above 4.70 in experiment [1] and below 3.60 in experiment [2] (setting [3]).

On to `COCc1coc(-c2c(C)[nH]c3c(-c4ccccc4)c(C(F)(F)F)nn3c2=O)n1` [Compound C1108, 6-(4-(methoxymethyl)oxazol-2-yl)-5-methyl-3-phenyl-2-(trifluoromethyl)pyrazolo[1,5-a]pyrimidin-7(4H)-one], for which the pIC50 in experiment [1] was below 4.00; in experiment [2] (setting [3]), above 4.70.

Regarding `COc1cccc2oc(-c3c(CN(C)C)[nH]c4c(-c5ccccc5)c(C(F)(F)F)nn4c3=O)nc12` [Compound C1109, 5-((dimethylamino)methyl)-6-(4-methoxybenzo[d]oxazol-2-yl)-3-phenyl-2-(trifluoromethyl)pyrazolo[1,5-a]pyrimidin-7(4H)-one], the figures for the pIC50 in experiment [1] and in experiment [2] (setting [3]) were below 4.00 and above 4.70, respectively.

For `COc1ccc(C(C)=O)c2oc(-c3c(C)[nH]c4c(-c5ccccc5)c(C(F)(F)F)nn4c3=O)nc12` [Compound C1111, 6-(7-acetyl-4-methoxybenzo[d]oxazol-2-yl)-5-methyl-3-phenyl-2-(trifluoromethyl)pyrazolo[1,5-a]pyrimidin-7(4H)-one], the pIC50 in experiment [1] and in experiment [2] (setting [3]) was above 4.70 throughout.

On to `COc1cc(C#N)cc2oc(-c3c(C)[nH]c4c(-c5ccccc5)c(C(F)(F)F)nn4c3=O)nc12` [Compound C1112, 4-methoxy-2-(5-methyl-7-oxo-3-phenyl-2-(trifluoromethyl)-4,7-dihydropyrazolo[1,5-a]pyrimidin-6-yl)benzo[d]oxazole-6-carbonitrile], for which the pIC50 in experiment [1] was below 4.00; in experiment [2] (setting [3]), 3.60 to 4.70.

Regarding `Cc1[nH]c2c(-c3ccccc3)c(C(F)(F)F)nn2c(=O)c1-c1nc2c(=O)[nH]ccc2o1` [Compound C1116, 2-(5-methyl-7-oxo-3-phenyl-2-(trifluoromethyl)-4,7-dihydropyrazolo[1,5-a]pyrimidin-6-yl)oxazolo[4,5-c]pyridin-4(5H)-one], the pIC50 in experiment [1] is below 4.00; in experiment [2] (setting [3]) it was above 4.70.

For `Cc1[nH]c2c(-c3ccccc3)c(C(F)(F)F)nn2c(=O)c1-c1nc2c(OCC(N)=O)cccc2o1` [Compound C1122, 2-((2-(5-methyl-7-oxo-3-phenyl-2-(trifluoromethyl)-4,7-dihydropyrazolo[1,5-a]pyrimidin-6-yl)benzo[d]oxazol-4-yl)oxy)acetamide], the values for the pIC50 in experiment [1] and in experiment [2] (setting [3]) were 4.00 to 4.70 and above 4.70, respectively.

For `COc1ccc(S(C)(=O)=O)c2oc(-c3c(C)[nH]c4c(-c5ccccc5)c(C(F)(F)F)nn4c3=O)nc12` [Compound C1125, 6-(4-methoxy-7-(methylsulfonyl)benzo[d]oxazol-2-yl)-5-methyl-3-phenyl-2-(trifluoromethyl)pyrazolo[1,5-a]pyrimidin-7(4H)-one], the values for the pIC50 in experiment [1] and in experiment [2] (setting [3]) were 4.00 to 4.70 and above 4.70, respectively.

`COc1ccc(C(=O)O)c2oc(-c3c(C)[nH]c4c(-c5ccccc5)c(C(F)(F)F)nn4c3=O)nc12` [Compound C1130]: the results for the pIC50 in experiment [1] and in experiment [2] (setting [3]) were 4.00 to 4.70 and above 4.70, respectively.

With `COc1cccc2oc(-c3c(C(=O)O)[nH]c4c(-c5ccccc5)c(C(F)(F)F)nn4c3=O)nc12` [Compound C1131, 6-(4-methoxybenzo[d]oxazol-2-yl)-7-oxo-3-phenyl-2-(trifluoromethyl)-4,7-dihydropyrazolo[1,5-a]pyrimidine-5-carboxylic acid], the figures for the pIC50 in experiment [1] and in experiment [2] (setting [3]) were below 4.00 and above 4.70, respectively.

Consider `COc1cccc2oc(-c3c(C(N)=O)[nH]c4c(-c5ccccc5)c(C(F)(F)F)nn4c3=O)nc12` [Compound C1132, 6-(4-methoxybenzo[d]oxazol-2-yl)-7-oxo-3-phenyl-2-(trifluoromethyl)-4,7-dihydropyrazolo[1,5-a]pyrimidine-5-carboxamide], for which the pIC50 in experiment [1] was below 4.00; in experiment [2] (setting [3]) it was above 4.70.

For `COc1cc(CN)cc2oc(-c3c(C)[nH]c4c(-c5ccccc5)c(C(F)(F)F)nn4c3=O)nc12` [Compound C1135, 6-(6-(aminomethyl)-4-methoxybenzo[d]oxazol-2-yl)-5-methyl-3-phenyl-2-(trifluoromethyl)pyrazolo[1,5-a]pyrimidin-7(4H)-one], the values for the negative-log IC50 (pIC50) in experiment [1] and in experiment [2] (setting [3]) were below 4.00 and above 4.70, respectively.

For `COc1cccc2oc(-c3c(C[S+](C)[O-])[nH]c4c(-c5ccccc5)c(C(F)(F)F)nn4c3=O)nc12` (stereo not drawn) [Compound C1137, 6-(4-methoxybenzo[d]oxazol-2-yl)-5-((methylsulfinyl)methyl)-3-phenyl-2-(trifluoromethyl)pyrazolo[1,5-a]pyrimidin-7(4H)-one], the pIC50 is below 4.00 in experiment [1] and above 4.70 in experiment [2] (setting [3]).

For `COc1cccc2oc(-c3c(CS(C)(=O)=O)[nH]c4c(-c5ccccc5)c(C(F)(F)F)nn4c3=O)nc12` [Compound C1138, 6-(4-methoxybenzo[d]oxazol-2-yl)-5-((methylsulfonyl)methyl)-3-phenyl-2-(trifluoromethyl)pyrazolo[1,5-a]pyrimidin-7(4H)-one], the pIC50 in experiment [1] was below 4.00; in experiment [2] (setting [3]), above 4.70.
